Earlier results as cited in patent US20080153788A1, “NOVEL COMPOSITION TO INCREASE MUSCLE STRENGTH” (ORAL DELIVERY TECHNOLOGIES, priority 2006, published 2008).

Columns and labels:
[1] = humans; prior-art description
[2] = for injection

Row | SMILES | period over which concentration declines after the peak [1] | time to concentration peak after administration [1] | solubility in oily media [2]
1 | C[C@]12CC[C@H]3[C@@H](CCC4=CC(O)CC[C@@]43C)[C@@H]1CC[C@@H]2O (stereo partly drawn) [4-androstene-3,17β-diol] | 3 to 4 h | ≤ 90 min | 
2 | CCCCCCCCCCC(=O)O[C@H]1CC[C@H]2[C@H]3[C@H](CC[C@]12C)[C@H]1CCC(=O)C=C1C[C@H]3C [MENT undecanoate, (7α,17β)-7-methyl-17-[(1-α-oundecyl)oxy]estr-4en-3one] |  |  | good solubility
